Literature values, collected in patent US20130338095A1, “Chemosensory Receptor Ligand-Based Therapies” (ELCELYX THERAPEUTICS, INC., priority 2010, published 2013).

molecular target: T1, sweet receptor (Homo sapiens, UniProt Q7RTX0+Q8TE23); conditions: relative sweetness on a weight comparison basis to sucrose (=1.0)
T1 sequence (Q8TE23 20-839): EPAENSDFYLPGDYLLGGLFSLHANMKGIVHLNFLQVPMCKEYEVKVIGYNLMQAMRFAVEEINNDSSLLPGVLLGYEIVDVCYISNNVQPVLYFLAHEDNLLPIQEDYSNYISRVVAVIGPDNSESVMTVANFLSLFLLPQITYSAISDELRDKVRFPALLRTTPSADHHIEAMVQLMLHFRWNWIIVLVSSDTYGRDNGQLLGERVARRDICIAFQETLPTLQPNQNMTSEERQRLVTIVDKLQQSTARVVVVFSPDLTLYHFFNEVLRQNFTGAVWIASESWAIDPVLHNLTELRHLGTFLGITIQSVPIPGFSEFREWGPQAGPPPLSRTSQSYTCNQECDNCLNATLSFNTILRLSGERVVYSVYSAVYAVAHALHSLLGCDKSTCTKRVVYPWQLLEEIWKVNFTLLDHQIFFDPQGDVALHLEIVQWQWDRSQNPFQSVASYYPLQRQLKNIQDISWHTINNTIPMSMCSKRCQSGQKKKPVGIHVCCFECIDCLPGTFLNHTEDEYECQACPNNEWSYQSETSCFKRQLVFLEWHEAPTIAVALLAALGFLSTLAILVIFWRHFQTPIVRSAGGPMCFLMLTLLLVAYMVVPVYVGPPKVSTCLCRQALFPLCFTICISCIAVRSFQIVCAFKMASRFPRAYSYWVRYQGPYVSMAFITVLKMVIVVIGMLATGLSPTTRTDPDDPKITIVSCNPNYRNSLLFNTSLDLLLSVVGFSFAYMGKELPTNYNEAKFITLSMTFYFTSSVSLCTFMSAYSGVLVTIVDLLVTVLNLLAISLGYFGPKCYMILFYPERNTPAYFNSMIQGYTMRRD
T1 sequence (Q7RTX0 21-852): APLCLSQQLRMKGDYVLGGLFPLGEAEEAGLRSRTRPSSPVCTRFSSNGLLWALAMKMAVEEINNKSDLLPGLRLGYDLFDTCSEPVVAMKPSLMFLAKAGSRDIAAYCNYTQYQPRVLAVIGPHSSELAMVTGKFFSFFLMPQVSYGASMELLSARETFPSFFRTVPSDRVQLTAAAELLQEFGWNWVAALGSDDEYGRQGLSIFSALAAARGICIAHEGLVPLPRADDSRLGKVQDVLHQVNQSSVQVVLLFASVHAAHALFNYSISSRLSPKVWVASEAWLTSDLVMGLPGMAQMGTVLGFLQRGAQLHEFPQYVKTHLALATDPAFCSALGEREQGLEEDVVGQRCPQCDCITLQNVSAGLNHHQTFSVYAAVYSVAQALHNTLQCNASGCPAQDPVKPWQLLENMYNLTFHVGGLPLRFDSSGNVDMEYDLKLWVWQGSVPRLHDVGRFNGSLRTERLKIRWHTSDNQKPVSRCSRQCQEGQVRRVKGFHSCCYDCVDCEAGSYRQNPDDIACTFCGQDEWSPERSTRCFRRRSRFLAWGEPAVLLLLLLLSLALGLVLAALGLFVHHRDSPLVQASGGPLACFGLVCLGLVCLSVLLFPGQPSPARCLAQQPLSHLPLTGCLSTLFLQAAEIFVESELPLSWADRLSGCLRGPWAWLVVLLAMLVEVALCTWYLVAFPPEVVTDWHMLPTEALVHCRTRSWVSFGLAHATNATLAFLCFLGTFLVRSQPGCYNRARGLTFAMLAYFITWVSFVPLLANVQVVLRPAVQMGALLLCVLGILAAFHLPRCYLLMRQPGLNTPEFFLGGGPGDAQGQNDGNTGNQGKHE

With `C/C(=C\CC[C@@H](C)[C@H]1CC[C@@]2(C)[C@@H]3CC=C4[C@@H](CC[C@H](O[C@@H]5O[C@H](CO)[C@@H](O)[C@H](O)[C@H]5O)C4(C)C)[C@]3(C)[C@H](O)C[C@]12C)CO[C@@H]1O[C@H](CO[C@@H]2O[C@H](CO)[C@@H](O)[C@H](O)[C@H]2O)[C@@H](O)[C@H](O)[C@H]1O` [Carnosifloside VI] as the compound, how does the Sweetness/potency read?
The Sweetness/potency was 77.

Which Sweetness/potency does the source give for `CC1=CC[C@@H]([C@@H](C)[C@H]2CC[C@@]3(C)[C@@H]4CC[C@H]5[C@](C)(C(=O)O)[C@@H](O[C@@H]6O[C@H](CO)[C@@H](O)[C@H](O)[C@H]6O[C@@H]6O[C@H](CO)[C@@H](O)[C@H](O)[C@H]6O)CC[C@@]56C[C@@]46CC[C@]23C)OC1=O` [Abrusoside C] here?
Its Sweetness/potency is 50.

With `CC1=CC[C@@H]([C@@H](C)[C@H]2CC[C@@]3(C)[C@@H]4CC[C@H]5[C@](C)(C(=O)O)[C@@H](O[C@@H]6O[C@H](CO)[C@@H](O)[C@H](O)[C@H]6O)CC[C@@]56C[C@@]46CC[C@]23C)OC1=O` [Abrusoside A] as the compound, how does the Sweetness/potency read?
Its Sweetness/potency is 30.

With `C=C1C[C@@]23CC[C@H]4[C@@](C)(CCC[C@@]4(C)C(=O)O[C@@H]4O[C@H](CO)[C@@H](O)[C@H](O)[C@H]4O)[C@@H]2CC[C@]1(O[C@@H]1O[C@H](CO)[C@@H](O)[C@H](O)[C@H]1O[C@@H]1O[C@H](CO)[C@@H](O)[C@H](O)[C@H]1O)C3` [Stevioside] as the compound, how does the Sweetness/potency read?
Its Sweetness/potency is 210.

With Monellin as the compound, how does the Sweetness/potency read?
Its Sweetness/potency is 3,000.

For `COC(=O)[C@H]1O[C@@H](O[C@H]2[C@H](O[C@H]3CC[C@]45C[C@]46CC[C@]4(C)[C@@H]([C@H](C)[C@@H]7CC=C(C)C(=O)O7)CC[C@@]4(C)[C@@H]6CC[C@H]5[C@]3(C)C(=O)O)O[C@H](CO)[C@@H](O)[C@@H]2O)[C@H](O)[C@@H](O)[C@@H]1O` [Abrusoside B], which Sweetness/potency is on record?
Its Sweetness/potency is 100.

With `C[C@@H]1O[C@@H](O[C@H]2[C@H](Oc3cc(O)c(C(=O)CCc4ccc(O)cc4)c(O)c3)O[C@H](CO)[C@@H](O)[C@@H]2O)[C@H](O)[C@H](O)[C@H]1O` [Naringin dihydrochalcone] as the compound, how does the Sweetness/potency read?
Its Sweetness/potency is 300.

With Periandrin II as the compound, how does the Sweetness/potency read?
The Sweetness/potency was 95.

With Curculin as the compound, how does the Sweetness/potency read?
The Sweetness/potency was 550.

With `COc1c(O)cc2c(c1O)C(=O)[C@H](O)[C@@H](c1ccc(O)c(O)c1)O2` [(2R,3R)-2,3-Dihydro-5,7,3′,4′-tetrahydroxy-6-methoxyflavonol] as the compound, how does the Sweetness/potency read?
The Sweetness/potency was 15.

test system: not given; conditions: bitter phytonutrients in common plant foods

With `O=C(O[C@@H]1Cc2c(O)cc(O)cc2O[C@@H]1c1ccc(O)c(O)c1)c1cc(O)c(O)c(O)c1` [Epicatechin gallate] as the compound, how does the Taste quality read?
The Taste quality was “Bitter and astringent”.

Which Taste quality does the source give for `C=CCC(=NOS(=O)(=O)O)S[C@@H]1O[C@H](CO)[C@@H](O)[C@H](O)[C@H]1O` (stereo in doubt) [Sinigrin] here?
Its Taste quality is “Bitter”.

With `COc1ccc(-c2cc(=O)c3c(OC)c(OC)c(OC)c(OC)c3o2)cc1` [Tangeretin] as the compound, how does the Taste quality read?
Its Taste quality is “Bitter”.

Which Taste quality does the source give for `CC1(C)O[C@H]2CC(=O)OC[C@]23[C@H]2CC[C@@]4(C)[C@H](c5ccoc5)OC(=O)[C@H]5O[C@]54[C@]2(C)C(=O)C[C@@H]13` [Limonin] here?
Its Taste quality is “Bitter”.

With `O=c1c(O)c(-c2ccc(O)c(O)c2)oc2cc(O)cc(O)c12` [Quercetin] as the compound, how does the Taste quality read?
Its Taste quality is “Bitter”.

With `C[S+]([O-])CCCN=C=S` (stereo not shown) [3-Methyl-sulfinylpropyl isothiocyanate] as the compound, how does the Taste quality read?
The Taste quality was “Acrid mustard oils”.

With `O=c1c(-c2ccc(O)cc2)coc2cc(O)ccc12` [daidzein] as the compound, how does the Taste quality read?
The Taste quality was “Bitter or astringent”.

Which Taste quality does the source give for `O=c1c(-c2ccc(O)cc2)coc2cc(O[C@@H]3O[C@H](CO)[C@@H](O)[C@H](O)[C@H]3O)ccc12` [Daidzin] here?
Its Taste quality is “Astringent”.

With `C=CC1CNC(=S)O1` (stereo not shown) [Goitrin 5-vinyl-2-oxazolidine thione, 5-vinyl-2-oxazolidine thione] as the compound, how does the Taste quality read?
The Taste quality was “Bitter”.

With `COc1ccc(-c2cc(=O)c3c(OC)c(OC)c(OC)c(OC)c3o2)cc1OC` [Nobiletin] as the compound, how does the Taste quality read?
The Taste quality was “Bitter”.

Which Taste quality does the source give for `C[S+]([O-])CCCCN=C=S` (stereo not shown) [4-Methylsulfinyl butyl isothiocyanate] here?
The Taste quality was “Acrid mustard oils”.

With `CC(=O)O[C@H]1CC(=O)OC(C)(C)[C@@H]2CC(=O)[C@]3(C)[C@H](CC[C@@]4(C)[C@H](c5ccoc5)OC(=O)[C@H]5O[C@]543)[C@@]12C` [Nomilin] as the compound, how does the Taste quality read?
Its Taste quality is “Bitter”.
